pEC50: −log10 of the molar value.
Key:
[1] = system: primary human fibroblasts derived from IPF patients (LL29 cells) treated with TGF-β1; experiment: Inhibition of fibrotic process, αSMA staining in TGF-β1 treated LL29 fibroblasts; type: cell-based; details: Fibroblast; for pEC50: 96 h, % αSMA positive LL29 cells, TGF-β1 20 ng/mL, 4 days; for inhibition at 10 µM: given where EC50 >10 μM, αSMA, LL29 cells, TGF-β1, read-out: percent inhibition at 10 μM
Procedure, shortened: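 Compound dilutions from 10 μM down to […] are dispensed, LL29 cells added in F12 with 1% FBS, and TGF-β1 (20 ng/mL) follows after 1 h. After 4 days, live-cell αSMA positivity is measured by immunofluorescence and normalized to TGF-β1-treated wells to derive EC50.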

[2] = system: primary human mesenchymal stem cells (hMSCs); experiment: Chondrogenesis induction in hMSCs (nodule count); type: cell-based; details: 144 h, hMSC chondrogenesis, 6 days; for EC50: concentration required to induce 50% of TGF-β3 level, read-out: Conc. (nM) of 50% TGF-β3 activity; for Emax: relative to TGF-β3 (10 ng/mL) positive control, read-out: Max. Activity as % TGF-β3 activity
Protocol: Representative compounds were screened using primary human mesenchymal stem cells (hMSCs) to determine their ability to induce chondrogenesis (process by which cartilage is developed).
Primary human mesenchymal stem cells (hMSCs) were purchased from Lonza (Walkersville, Md.) and expanded in Mesenchymal Stem Cell Growth Media (Lonza). Cells between passage 3 and 6 were used for the experiments.
Each compound was dissolved in DMSO as a 10 mM stock and used to prepare compound source plates. Serial dilution (1:3, 6-point dose-response curves from 2700 nM to 10 nM) and compound transfer was performed using the ECHO 550 (Labcyte, Sunnyvale, Calif.) into 96-well clear bottom assay plates (Greiner Bio-One) with appropriate DMSO backfill for a final DMSO concentration of 0.03%. hMSCs were plated at 20,000 cells/well in 250 μL/well Incomplete Chondrogenic Induction Medium (Lonza; DMEM, dexamethasone, ascorbate, insulin-transferrin-selenium [ITS supplement], gentamycin-amphotericin [GA-1000], sodium pyruvate, proline and L-glutamine). TGF-β3 (10 ng/mL) was used as a positive control for differentiation while negative control wells were treated with 75 nL DMSO for normalization and calculating EC50 values. Cells were incubated at 37° C. and 5% CO2 for 6 days. To image chondrogenic nodules, the cells were fixed using 4% formaldehyde (Electron Microscopy Sciences), and stained with 2 μg/mL Rhodamine B (Sigma-Aldrich) and 20 μM Nile Red (Sigma-Aldrich) [Johnson K., et. al, A Stem Cell-Based Approach to Cartilage Repair, Science, (2012), 336(6082), 717-721]. The nodules imaged (4 images per well at 4× magnification) by excitation at 531 nm and emission at 625 nm and quantified using the CellInsight CX5 (Thermo Scientific). Number of nodules in each well was normalized to the average of 3 DMSO treated wells on the same plate using Excel (Microsoft Inc.). The normalized averages (fold change over DMSO) of 3 replicate wells for each compound concentration were calculated. Due to solubility limitations of some of the compounds, curve fitting was incomplete leading to inaccurate EC50 determinations.
Using TGF-β3 as a positive control, the concentration of representative compounds required to induce 50% levels of chondrogenesis is reported. In addition, the maximum activity of each compound and the respective dose that each compound reached maximum chondrogenesis activity is reported.

Compound | pEC50 [1] | EC50 [2] | Emax [2] | inhibition at 10 µM [1]
CC(C)(C)C(=O)Nc1cncc(-c2cc3c(-c4cc5c(-c6cccc(F)c6)ccnc5[nH]4)n[nH]c3cn2)c1 [Compound 8, N-(5-(3-(4-(3-Fluorophenyl)-1H-pyrrolo[2,3-b]pyridin-2-yl)-1H-pyrazolo [3,4-c]pyridin-5-yl)pyridin-3-yl)pivalamide] | 7.48 | 10 nM | 114% | 
Fc1cccc(-c2ccnc3[nH]c(-c4n[nH]c5cnc(-c6cncc(CN7CCCC7)c6)cc45)cc23)c1 [Compound 14, 3-(4-(3-Fluorophenyl)-1H-pyrrolo[2,3-b]pyridin-2-yl)-5-(5-(pyrrolidin-1-ylmethyl)pyridin-3-yl)-1H-pyrazolo[3,4-c]pyridine] | 5.45 | 100 nM | 68% | 
O=C(Nc1cncc(-c2cc3c(-c4cc5c(-c6cccc(F)c6)ccnc5[nH]4)n[nH]c3cn2)c1)C1CC1 [Compound 20, N-(5-(3-(4-(3-Fluorophenyl)-1H-pyrrolo[2,3-b]pyridin-2-yl)-1H-pyrazolo [3,4-c]pyridin-5-yl)pyridin-3-yl)cyclopropanecarboxamide] | 7.72 |  | 22% | 
Fc1cccc(-c2ccnc3[nH]c(-c4n[nH]c5cnc(-c6cncnc6)cc45)cc23)c1 [Compound 27, 3-(4-(3-Fluorophenyl)-1H-pyrrolo[2,3-b]pyridin-2-yl)-5-(pyrimidin-5-yl)-1H-pyrazolo[3,4-c]pyridine] | 5.55 |  | 41% | 
Nc1cncc(-c2cc3c(-c4cc5c(-c6ccccc6F)ccnc5[nH]4)n[nH]c3cn2)c1 [Compound 59, 5-(3-(4-(2-Fluorophenyl)-1H-pyrrolo[2,3-b]pyridin-2-yl)-1H-pyrazolo[3,4-c]pyridin-5-yl)pyridin-3-amine] | 6.41 |  | 32% | 
CCNCc1cncc(-c2cc3c(-c4cc5c(-c6ccccc6F)ccnc5[nH]4)n[nH]c3cn2)c1 [Compound 62, N-((5-(3-(4-(2-Fluorophenyl)-1H-pyrrolo[2,3-b]pyridin-2-yl)-1H-pyrazolo [3,4-c]pyridin-5-yl)pyridin-3-yl)methyl)ethanamine] | < 5.00 | 30 nM | 270% | 64.9%
Fc1cccc(-c2ccnc3[nH]c(-c4n[nH]c5cnc(-c6cncc(OCc7ccccc7)c6)cc45)cc23)c1 [Compound 518, 5-(5-(Benzyloxy)pyridin-3-yl)-3-(4-(3-fluorophenyl)-1H-pyrrolo[2,3-b]pyridin-2-yl)-1H-pyrazolo[3,4-c]pyridine] | < 5.00 |  |  | 27.5%
Oc1cncc(-c2cc3c(-c4cc5c(-c6ccc(F)cc6)ccnc5[nH]4)n[nH]c3cn2)c1 [Compound 533, 5-(3-(4-(4-Fluorophenyl)-1H-pyrrolo[2,3-b]pyridin-2-yl)-1H-pyrazolo[3,4-c]pyridin-5-yl)pyridin-3-ol] | 5.45 |  |  | 
CN(C)CCOc1cncc(-c2cc3c(-c4cc5c(-c6cccnc6)ccnc5[nH]4)n[nH]c3cn2)c1 [Compound 563, N,N-Dimethyl-2-((5-(3-(4-(pyridin-3-yl)-1H-pyrrolo[2,3-b]pyridin-2-yl)-1H-pyrazolo[3,4-c]pyridin-5-yl)pyridin-3-yl)oxy)ethan-1-amine] | 5.96 |  |  | 
c1cc(N2CCCCC2)c2cc(-c3n[nH]c4cnc(C5CCNCC5)cc34)[nH]c2n1 [Compound 601, 3-(4-(Piperidin-1-yl)-1H-pyrrolo[2,3-b]pyridin-2-yl)-5-(piperidin-4-yl)-1H-pyrazolo[3,4-c]pyridine] | < 5.00 |  |  | 13%
Cn1cc(-c2cc3c(-c4cc5cccnc5[nH]4)n[nH]c3cn2)cn1 [Compound 652, 5-(1-Methyl-1H-pyrazol-4-yl)-3-(1H-pyrrolo[2,3-b]pyridin-2-yl)-1H-pyrazolo[3,4-c]pyridine] | 6.33 |  |  | 
c1csc(-c2ccnc3[nH]c(-c4n[nH]c5cnc(-c6cncc(OC7CCCCC7)c6)cc45)cc23)c1 [Compound 703, 5-(5-(Cyclohexyloxy)pyridin-3-yl)-3-(4-(thiophen-2-yl)-1H-pyrrolo[2,3-b]pyridin-2-yl)-1H-pyrazolo[3,4-c]pyridine] | 5.76 |  |  | 

From US10285982B2, “3-(1H-pyrrolo[2,3-B]pyridin-2-yl)-1H-pyrazolo[3,4-C]pyridines and therapeutic uses thereof” (Samumed, LLC, priority 2015, dated 2019)
